tested on: JUN; test: Gene expression custom microarray, pooled keratinocyte line (Example 3): JUN; type: cell-based, human; conditions: pooled keratinocytes, 20 ppm, 24 hr
Method: Cell cultures: Received and began culture of pooled keratinocyte line from Promocell (C-12006; Lot #448Z026). Cells were seeded into a 75 cm2 flask and 2 6 well dishes for expansion and exposure per manufacturer's protocol using Keratinocyte Growth Medium (C2011B), Keratinocyte Supplement Mix (C39016) and CaCl (C34005). 2 ml of prepared solution were added to each of the 6 wells and 7 ml was added to the 75 cm2 flask.
Experimental phase: When the appropriate quantity of cells were grown, they were detached as described above, but at the final step were seeded into each well of one or more 6 well dishes. Each well received 2 ml of the cells suspended in suspension so they were seeded equally. The dishes were returned to the incubator until 85-95% confluency is reached.
It was at this stage that all wells were rinsed in PBS after aspirating the growth media. The compound(s) to be tested were previously mixed into a suitable solvent (e.g., DMSO or ethanol) that can be diluted to the desired concentration of test compound (10 μl) in the culture wells without exceeding maximum solvent concentrations and adversely effecting cell viability, and mixed with Basal Keratinocyte Media. NOTE: Standard maximum levels of solvent are 0.1% for DMSO and 0.5% for ETOH. The concentration for each tested compound/natural extract is generally listed in the left-hand column of Table 4. For certain compositions (e.g., compositions 15 and 16), other concentrations were used and are noted in the body of Table 4.
Every 2 wells on the 6 well plate served as a biological replicate for the purposes of RNA isolation and genetic expression evaluations making each 6 well dish an n=3 for the test compound contained in the media. […]
At the end of the 24 hr time period, the plates were removed from the incubator, the test media aspirated, and the cells rinsed with PBS. […] Allow 1 minute for saturation of the membrane and then centrifuge for 2 minutes to complete the RNA elution. • Quantify the quantity of RNA and store at −20 C° until use (no more than 1 month) […]

Question: How did the “↓JUN gene expression, fold increase or decrease vs untreated cells” value turn out when `CC(C)[C@]12O[C@H]1[C@@H]1O[C@]13[C@]1(O[C@H]1C[C@H]1C4=C(CC[C@@]13C)C(=O)OC4)[C@@H]2O` [Triptolide] was run?
Answer: Its value is −4.7 fold.

Question: For `CCCCCCCCCCCCCCCC(=O)NCCO` [N-palmitoylethanolamide], which “↓JUN gene expression, fold increase or decrease vs untreated cells” value is on record?
Answer: The value was −1.9 fold.

Question: `C=C(C)[C@@H]1CCC(C)=C[C@H]1c1c(O)cc(CCCCC)cc1O` [CBD, cannabidiol, reference compound] was tested. Which “↓JUN gene expression, fold increase or decrease vs untreated cells” value did it give?
Answer: Its value is 2.7 fold.
